Laboratory results as given in patent US20090203800A1, “Cytostatic Composition” (priority 2008, published 2009).

Columns and labels:
Assay type in all cases: cell-based
Conditions in all cases: 5-FU 1.0 mg/ml
[1] = system: human tumor xenograft BXF 1218 (Bladder); assay: clonogenic assay (tumor colony assay)
Experimental: (§1) In the clonogenic assay (=tumor colony assay, TCA), inhibition of colony formation of tumor stem cells growing in soft agar is examined. Tumor stem cells, which are responsible for growth, the metastatic and infiltrative potential of a tumor, are prepared directly from human tumor xenografts growing in nude mice.
(§2) Cytostatic was tested at 6 concentrations. The highest concentration tested was 0.004%, as shown below, which was the maximum allowed concentration of the vehicle in the test set as 100% of Cytostatic. IMDM supplemented with 10% v/v saline solution was also used as a control vehicle.
(§3) Solid human tumor xenografts growing subcutaneously in serial passages in thymus aplastic nude mice (NMRI nu/nu strain,) were removed under sterile conditions, mechanically disaggregated and subsequently incubated with an enzyme cocktail consisting of collagenase type IV (41 U/ml) (Sigma), DNase I (125 U/ml) (Roche), hyaluronidase type III (100 U/ml) (Sigma) and dispase II (1.0 U/ml) (Roche) in RPMI 1640-Medium (Life Technologies) at 37° C. for 45 minutes. Cells were passed through sieves of 200 μm and 50 μm mesh size and washed twice with sterile PBS-buffer. The percentage of viable cells was determined in a Neubauer-hemocytometer using trypan blue exclusion.
(§4) The clonogenic assay was performed in a 24-well format according to a modified two-layer soft agar assay introduced by Hamburger & Salmon. The bottom layer consisted of 0.2 ml/well IMDM (Life Technologies) (supplemented with 20% (v/v) fetal calf serum (Sigma), 0.01% (w/v) gentamicin (Life Technologies) and 0.75% (w/v) agar). 2×10^4 to 4×10^4 cells were added to 0.2 ml of the same culture medium supplemented with 0.4% (w/v) agar and plated in 24-multiwell dishes onto the bottom layer. The test compound was applied by continuous exposure (drug overlay) in 0.2 ml culture medium. Every dish included six untreated control wells and drug-treated groups in triplicate at 6 concentrations. Cultures were incubated at 37° C. and 7.5% CO2 in a humidified atmosphere for 6-18 days and monitored closely for colony growth using an inverted microscope. Within this period, in vitro tumor growth led to the formation of colonies with a diameter of >50 μm. At the time of maximum colony formation, counts were performed with an automatic image analysis system (OMNICON 3600, Biosys GmbH). 24 hours prior to evaluation, vital colonies were stained with a sterile aqueous solution of 2-(4-iodophenyl)-3-(4-nitrophenyl)-5-phenyltetrazolium chloride (1 mg/ml, 100 μl/well) (Sigma).
(§5) Drug effects were expressed by the percentage of colony formation, obtained by comparison of the mean number of colonies in the treated wells with the mean colony count of the untreated controls (relative colony count expressed by the test-versus-control value, T/C-value [%]):
(§6) IC50- and IC70-values, being the drug concentrations necessary to inhibit colony formation by 50% (T/C=50%) and 70% (T/C=30%), respectively, were determined by plotting compound concentration versus relative colony count. Mean IC50- and IC70-values were calculated according to the formula

[2] = system: human tumor xenograft CXF 1103 (Colon); assay: clonogenic assay (tumor colony assay)
Experimental: as §1, §2, §3, §4, §5, §6

[3] = system: human tumor xenograft CXF 280 (Colon); assay: clonogenic assay (tumor colony assay)
Experimental: as §1, §2, §3, §4, §5, §6

[4] = system: human tumor xenograft GXF 1172 (Stomach); assay: clonogenic assay (tumor colony assay)
Experimental: as §1, §2, §3, §4, §5, §6

[5] = system: human tumor xenograft HNXF 536 (Head & neck); assay: clonogenic assay (tumor colony assay)
Experimental: as §1, §2, §3, §4, §5, §6

[6] = system: human tumor xenograft LIXF 575 (Liver); assay: clonogenic assay (tumor colony assay)
Experimental: as §1, §2, §3, §4, §5, §6

[7] = system: human tumor xenograft LXFA 289 (Lung, NSC); assay: clonogenic assay (tumor colony assay)
Experimental: as §1, §2, §3, §4, §5, §6

[8] = system: human tumor xenograft LXFA 526 (Lung, NSC); assay: clonogenic assay (tumor colony assay)
Experimental: as §1, §2, §3, §4, §5, §6

[9] = system: human tumor xenograft LXFL 1647 (Lung, NSC); assay: clonogenic assay (tumor colony assay)
Experimental: as §1, §2, §3, §4, §5, §6

[10] = system: human tumor xenograft LXFL 529 (Lung, NSC); assay: clonogenic assay (tumor colony assay)
Experimental: as §1, §2, §3, §4, §5, §6

[11] = system: human tumor xenograft LXFS 615 (Lung, SC); assay: clonogenic assay (tumor colony assay)
Experimental: as §1, §2, §3, §4, §5, §6

[12] = system: human tumor xenograft LXFS 650 (Lung, SC); assay: clonogenic assay (tumor colony assay)
Experimental: as §1, §2, §3, §4, §5, §6

[13] = system: human tumor xenograft MAXF 1322 (Breast); assay: clonogenic assay (tumor colony assay)
Experimental: as §1, §2, §3, §4, §5, §6

[14] = system: human tumor xenograft MAXF 1384 (Breast); assay: clonogenic assay (tumor colony assay)
Experimental: as §1, §2, §3, §4, §5, §6

[15] = system: human tumor xenograft MAXF 401 (Breast); assay: clonogenic assay (tumor colony assay)
Experimental: as §1, §2, §3, §4, §5, §6

[16] = system: human tumor xenograft MEXF 1539 (Melanoma); assay: clonogenic assay (tumor colony assay)
Experimental: as §1, §2, §3, §4, §5, §6

[17] = system: human tumor xenograft MEXF 514 (Melanoma); assay: clonogenic assay (tumor colony assay)
Experimental: as §1, §2, §3, §4, §5, §6

[18] = system: human tumor xenograft MEXF 989 (Melanoma); assay: clonogenic assay (tumor colony assay)
Experimental: as §1, §2, §3, §4, §5, §6

[19] = system: human tumor xenograft OVXF 550 (Ovary); assay: clonogenic assay (tumor colony assay)
Experimental: as §1, §2, §3, §4, §5, §6

[20] = system: human tumor xenograft OVXF 899 (Ovary); assay: clonogenic assay (tumor colony assay)
Experimental: as §1, §2, §3, §4, §5, §6

[21] = system: human tumor xenograft PAXF 736 (Pancreas); assay: clonogenic assay (tumor colony assay)
Experimental: as §1, §2, §3, §4, §5, §6

[22] = system: human tumor xenograft PRXF DU145 (Prostate); assay: clonogenic assay (tumor colony assay)
Experimental: as §1, §2, §3, §4, §5, §6

[23] = system: human tumor xenograft PRXF MRIH1579 (Prostate); assay: clonogenic assay (tumor colony assay)
Experimental: as §1, §2, §3, §4, §5, §6

[24] = system: human tumor xenograft PXF 1118 (Pleuramesothelioma); assay: clonogenic assay (tumor colony assay)
Experimental: as §1, §2, §3, §4, §5, §6

[25] = system: human tumor xenograft RXF 631 (Kidney); assay: clonogenic assay (tumor colony assay)
Experimental: as §1, §2, §3, §4, §5, §6

[26] = system: human tumor xenograft RXF 944LX (Kidney); assay: clonogenic assay (tumor colony assay)
Experimental: as §1, §2, §3, §4, §5, §6

[27] = system: human tumor xenograft SXF 627 (Sarcoma); assay: clonogenic assay (tumor colony assay)
Experimental: as §1, §2, §3, §4, §5, §6

[28] = system: 27 human tumor xenografts; assay: clonogenic assay, whole test panel
Experimental: The antitumor efficacy of cytostatic composition as described above was evaluated in 27 human tumor xenografts in vitro using a clonogenic assay. The tumor test panel comprised 1 to 4 models of 15 different human tumor types, which were bladder cancer, colon, gastric, head and neck, liver, non small cell lung (adeno and large cell), small cell lung, mammary, ovary, pancreatic, prostate and renal cancer as well as melanoma, pleuramesothelioma, and sarcoma. The cytostatic composition was studied at 6 concentrations ranging from 0.001% to 100.0%. Antitumor effects were recorded as inhibition of colony formation in relation to untreated controls (T/C-values).
In the clonogenic assay (=tumor colony assay, TCA), inhibition of colony formation of tumor stem cells growing in soft agar is examined. […]
The clonogenic assay was performed in a 24-well format according to a modified two-layer soft agar assay introduced by Hamburger & Salmon. […] Cultures were incubated at 37° C. and 7.5% CO2 in a humidified atmosphere for 6-18 days and monitored closely for colony growth using an inverted microscope. […]
with x the specific tumor model, and n the total number of tumor models studied. If an IC50- or IC70-value could not be determined within the examined dose range (because a compound was either too active or lacked activity), the lowest or highest concentration studied was used for the calculation. […]

O=c1[nH]cc(F)c(=O)[nH]1 [5-FU, 5-fluorouracil]
5-FU control, T/C [%] [1]: 2% | 5-FU control, T/C [%] class [1]: +++ (+++ (T/C ≦ 10)) | 5-FU control, T/C [%] [2]: 10% | 5-FU control, T/C [%] class [2]: +++ (+++ (T/C ≦ 10)) | 5-FU control, T/C [%] [3]: 21% | 5-FU control, T/C [%] class [3]: ++ (++ (10 < T/C < 30)) | 5-FU control, T/C [%] [4]: 15% | 5-FU control, T/C [%] class [4]: ++ (++ (10 < T/C < 30)) | 5-FU control, T/C [%] [5]: 9% | 5-FU control, T/C [%] class [5]: +++ (+++ (T/C ≦ 10)) | 5-FU control, T/C [%] [6]: 4% | 5-FU control, T/C [%] class [6]: +++ (+++ (T/C ≦ 10)) | 5-FU control, T/C [%] [7]: 12% | 5-FU control, T/C [%] class [7]: ++ (++ (10 < T/C < 30)) | 5-FU control, T/C [%] [8]: 2% | 5-FU control, T/C [%] class [8]: +++ (+++ (T/C ≦ 10)) | 5-FU control, T/C [%] [9]: 5% | 5-FU control, T/C [%] class [9]: +++ (+++ (T/C ≦ 10)) | 5-FU control, T/C [%] [10]: 0% | 5-FU control, T/C [%] class [10]: +++ (+++ (T/C ≦ 10)) | 5-FU control, T/C [%] [11]: 14% | 5-FU control, T/C [%] class [11]: ++ (++ (10 < T/C < 30)) | 5-FU control, T/C [%] [12]: 0% | 5-FU control, T/C [%] class [12]: +++ (+++ (T/C ≦ 10)) | 5-FU control, T/C [%] [13]: 0% | 5-FU control, T/C [%] class [13]: +++ (+++ (T/C ≦ 10)) | 5-FU control, T/C [%] [14]: 4% | 5-FU control, T/C [%] class [14]: +++ (+++ (T/C ≦ 10)) | 5-FU control, T/C [%] [15]: 4% | 5-FU control, T/C [%] class [15]: +++ (+++ (T/C ≦ 10)) | 5-FU control, T/C [%] [16]: 0% | 5-FU control, T/C [%] class [16]: +++ (+++ (T/C ≦ 10)) | 5-FU control, T/C [%] [17]: 4% | 5-FU control, T/C [%] class [17]: +++ (+++ (T/C ≦ 10)) | 5-FU control, T/C [%] [18]: 0% | 5-FU control, T/C [%] class [18]: +++ (+++ (T/C ≦ 10)) | 5-FU control, T/C [%] [19]: 33% | 5-FU control, T/C [%] class [19]: + (+ (30 ≦ T/C ≦ 50)) | 5-FU control, T/C [%] [20]: 31% | 5-FU control, T/C [%] class [20]: + (+ (30 ≦ T/C ≦ 50)) | 5-FU control, T/C [%] [21]: 5% | 5-FU control, T/C [%] class [21]: +++ (+++ (T/C ≦ 10)) | 5-FU control, T/C [%] [22]: 1% | 5-FU control, T/C [%] class [22]: +++ (+++ (T/C ≦ 10)) | 5-FU control, T/C [%] [23]: 7% | 5-FU control, T/C [%] class [23]: +++ (+++ (T/C ≦ 10)) | 5-FU control, T/C [%] [24]: 2% | 5-FU control, T/C [%] class [24]: +++ (+++ (T/C ≦ 10)) | 5-FU control, T/C [%] [25]: 4% | 5-FU control, T/C [%] class [25]: +++ (+++ (T/C ≦ 10)) | 5-FU control, T/C [%] [26]: 1% | 5-FU control, T/C [%] class [26]: +++ (+++ (T/C ≦ 10)) | 5-FU control, T/C [%] [27]: 2% | 5-FU control, T/C [%] class [27]: +++ (+++ (T/C ≦ 10)) | antitumor activity of positive control of growth inhibition [28]: good antitumor activity
